Assay results reported in patent US9023408B2, “Composition and method for control of diabetes” (Meyer Nutriceuticals LLC, priority 2009, dated 2015).

What was measured:
GLP-1 = test: Placebo-controlled double-blinded study in type 2 diabetes: plasma GLP-1; parameters: species or system human; details: in vivo
Description: FIGS. 6 and 7 depict the effect of CTM #3 versus placebo on blood glucose in a randomized, placebo-controlled, double-blinded study in 10 subjects with mild to moderate type 2 diabetes. After an overnight fast, subjects ingested 10 g of placebo pellets or CTM #3 pellets with the same standard breakfast as above (415 kcal; 71 g of carbohydrate) followed by a standard lunch at 240 min (708 kcal; 89 g of carbohydrate). […] The higher calorie lunch raised GLP-1s more than the breakfast on placebo days; and the CTM raised the post lunch GLP-1s even more. […] Using a similar calculation as used above for PYY, the per-calorie effectiveness of the lauric acid in CTM #3 in boosting the GLP-1 response to the meal was 77 times that of the calories in the breakfast.
For comparisons, the APAP levels have been scaled up so that their value equaled that of the GLP-1 peak at 270 min. […] The diabetic subjects were older than the normal subjects, and four of them had mild vagal neuropathy which might have contributed to slower gastric emptying. […]
The GLP-1 values (vertical axis) following the CTM treatment are expressed as a percent of the corresponding value at each time point following the placebo treatment, so that any value above the horizontal 100% line represents the effect of lauric acid released from the CTM #3. […]

[1] = U.S.P. in vitro dissolution test (rotating basket); details: uncoated cores of CTM #3
[2] = human, in vivo
Description: An additional gram of pellets was added to the dose; and the additional pellets had been surface-labeled with 99m-Tc-polymethylmethacrylate (these additional pellets could not release their contents), so that the positions of the pellets with time could be followed with a gamma camera. The releasing pellets also contained 5% (w/w) APAP which is rapidly and completely absorbed from small or large bowel, even in the presence of food. The APAP served as a pharmacokinetic marker. Subjects ate a free-choice meal at 241 min. Finally, PYY levels (see FIG. 4b) were followed on CTM and also on control days when four of the eight subjects shown in FIG. 4a consumed the standard breakfast at t=0 and a free choice lunch at t=241 min, but no pellets of CTM #3. Because lauric acid released from CTM #3 cannot be distinguished in plasma from dietary and endogenous lauric acid, assays of plasma PYY served as a surrogate for the release of bioactive lauric acid, which is known to be a potent stimulus of secretion of PYY and GLP-1 from L cells. To compare the time-courses of basal subtracted PYY measurements with those of APAP, analytical values for APAP were scaled up so that they equaled the peak PYY at 300 min.
From 240-300 minutes, the pellets began to empty from the ileum, so that by 300 min, there were few pellets in the small bowel, and the majority of pellets was now in the colon. […]

## CCCCCCCCCCCC(=O)O [lauric acid]
GLP-1
  per calorie potency relative to dietary nutrients in releasing GLP-1 and PYY: 77-150 times
[1]; pH 6.2
  solubility in simulated bile (bile salts and lecithin) at pH 6.2: only half as soluble as maltose
[1]; pH 6.2 1 h then pH 7.2 3 h
  solubility compared with maltose, bile-free medium: much less soluble than maltose
[1]; pH 7.2
  solubility in simulated bile (bile salts and lecithin) at pH 7.2: as soluble as maltose or APAP
[2]
  duration of slow release from the dosage form after ingestion: 330 to 360 min
